Data published in patent US8399495B2, “Talarazole metabolites” (Stiefel Laboratories, Inc., priority 2006, dated 2013).

What was measured:
IP-10 = assay: Suppression of IP-10 production by IFNγ-activated human epidermal keratinocytes; assay type: cell-based
Excerpt: Talarozole Metabolites for Suppression of IP-10 Production by IFNγ-Activated Human Epidermal Keratinocytes
IP-10, a member of the CXC subfamily of chemokines, attracts T-lymphocytes and natural killer cells. […] In particular, epidermal keratinocytes of psoriatic lesions express elevated levels of IP-10. Suppression of IP-10 expression by activated keratinocytes may represent a novel target for therapeutic intervention of inflammatory skin disorders.

[1] = system: vaginal keratinization induced by estrogenic treatment; assay: Inhibition of vaginal keratinization induced by estrogenic treatment in ovariectomized rats; assay type: in vivo, rat; settings: for ED50-value for complete suppression (keratinization score=0): ovariectomized rats with estrogenic treatment, M4 oral during 3 days
Excerpt: Effects on Epithelial Differentiation in Rat Vagina: Inhibition of Vaginal Keratinization Induced by Estrogenic Treatment in Ovariectomized Rats by Oral Administration of Talarozole Metabolite M4
This animal model is based on the observation that retinoic acid (RA) suppresses the keratinization process in the stratified squamous epithelium of the vagina induced by estrogenic treatment in ovariectomized rats (Sietsema & DeLuca, 1982; Geiger & Weiser, 1989).

[2] = Metabolite radioprofiling of plasma, urine and feces, dog; assay type: in vivo; settings: dog (5 mg/kg) oral 14C-talarozole; for Urine % Dose as the component: urine 0-72 h
Method: (§1) Male and female CD-1 mice (19-29 g, n=3/sex/timepoint for blood sampling, n=3/sex for mass balance), Sprague Dawley rats (0.205-0.237 kg, n=3/sex/timepoint for blood sampling, n=3/sex for mass balance) and beagle dogs (7-12 kg, n=3) were given a single oral dose of ^14C-labeled talarozole in 20% hydroxyl propyl B-cyclodextrin at 5 mg/kg. Healthy human male volunteers (76.6-107.9 kg, n=5) were dosed with a single oral dose of 4 mg ^14C-labeled rambazole in ethanol. Blood samples were collected at selected timepoints after dosing and plasma was prepared. Urine and feces were collected for 2, 7 and 8 days. For the human study, up to 288 hours post-dose and semen samples were obtained 2 and 4 hours post-dose. Radioactivity in various matrices were measured by liquid scintillation counting (LSC). Select plasma, urine and fecal samples were subjected to metabolite radioprofiling and characterization, and in the human study, semen samples. Metabolite radioprofiling was accomplished using HPLC with fraction collection followed by solid scintillation counting (Packard TopCount—see representative HPLC run data below). Radioactivity peaks were integrated and the percent distribution of individual metabolites in each sample was determined. Metabolite characterization and identification were accomplished by LC/MS (Finnigan MAT LCQ in positive or negative ESI mode) in conjunction with an appropriate radioactive monitor (RAM). For all species, plasma, urine and fecal samples were pooled across animals and analyzed. Plasma was analyzed at several time-points out to 24 hours. Urine was analyzed over one time-interval (0-24 hours for mouse, 0-48 hours for rat, 0-72 hours for dog, and for in the human study, 0-12, 12-24, 24-48, 0-48 hours. Feces was analyzed over 2-3 time intervals (0-24 and 24-48 hours for mouse and rat; 0-24, 24-48, and 48-72 hours for male dogs; and 24-48, 48-72, and 72-96 hours for female dogs). In the human study, feces were analyzed for 0-48, 48-96, 96-144, 144-192, 192-288, 0-144, 144-288 and 0-288 hours. PK parameters for ^14C-labeled talarozole radioactivity was determined from the mean (mouse and rat) or individual (dog and human) plasma concentration versus time data. PK parameter values were determined by non-compartmental methods using WinNonlin™. • HPLC data for separations described in Example 1: • LC system: Waters 2695 Separations Module • Analytic column: C18 column, 4.6×150 mm, 3 μm • Flow rate: 1.0 mL/min • Mobile phase A: 2% HCOOH in H2O (pH 3.2) • Mobile phase B: CH3CN • Gradient: […]

[3] = Metabolite radioprofiling of plasma, urine and feces, mouse; assay type: in vivo; settings: mouse (5 mg/kg) oral 14C-talarozole; for Urine % Dose as the component: urine 0-24 h
Method: as §1

[4] = Metabolite radioprofiling of plasma, urine and feces, rat; assay type: in vivo; settings: rat (5 mg/kg) oral 14C-talarozole; for Urine % Dose as the component: urine 0-48 h
Method: as §1

[5] = Metabolite radioprofiling of plasma, urine, feces and semen, human; settings: in vivo
Method: as §1

| SMILES | Feces % Dose as the component ([2]; female) | Urine % Dose as the component ([2]; female) | Feces % Dose as the component ([2]; male) | Urine % Dose as the component ([2]; male) | Plasma 0-24 h AUC (% Sample) ([3]; female) | Plasma 0-24 h AUC of the radioactive component ([3]; female) | Plasma 0-24 h AUC (% Sample) ([3]; male) | Plasma 0-24 h AUC of the radioactive component ([3]; male) | Feces % Dose as the component ([4]; female) | Plasma 0-24 h AUC (% Sample) ([4]; female) | Plasma 0-24 h AUC of the radioactive component ([4]; female) | Urine % Dose as the component ([4]; female) | Feces % Dose as the component ([4]; male) | Plasma 0-24 h AUC (% Sample) ([4]; male) | Plasma 0-24 h AUC of the radioactive component ([4]; male) | Urine % Dose as the component ([4]; male) | IP-10 expression (IP-10) | ED50-value for complete suppression (keratinization score=0) [1] | other results |
| --- | --- | --- | --- | --- | --- | --- | --- | --- | --- | --- | --- | --- | --- | --- | --- | --- | --- | --- | --- |
| CCC(CC)[C@@H](c1ccc(Nc2nc3ccccc3s2)cc1)n1cncn1 [its enanantiomer] |  |  |  |  |  |  |  |  |  |  |  |  |  |  |  |  | down regulate dose-dependently |  |  |
| CC1=C(/C=C/C(C)=C/C=C/C(C)=C/C(=O)O)C(C)(C)CCC1 [RA, retinoic acid] |  |  |  |  |  |  |  |  |  |  |  |  |  |  |  |  |  | 5.1 mg/kg/day |  |

Further lines, with some results ahead:

| Feces % Dose as the component ([2]; female) | Urine % Dose as the component ([2]; female) | Feces % Dose as the component ([2]; male) | Urine % Dose as the component ([2]; male) | Plasma 0-24 h AUC (% Sample) ([3]; female) | Plasma 0-24 h AUC of the radioactive component ([3]; female) | Plasma 0-24 h AUC (% Sample) ([3]; male) | Plasma 0-24 h AUC of the radioactive component ([3]; male) | Feces % Dose as the component ([4]; female) | Plasma 0-24 h AUC (% Sample) ([4]; female) | Plasma 0-24 h AUC of the radioactive component ([4]; female) | Urine % Dose as the component ([4]; female) | Feces % Dose as the component ([4]; male) | Plasma 0-24 h AUC (% Sample) ([4]; male) | Plasma 0-24 h AUC of the radioactive component ([4]; male) | Urine % Dose as the component ([4]; male) | SMILES | IP-10 expression (IP-10) | ED50-value for complete suppression (keratinization score=0) [1] | other results |
| --- | --- | --- | --- | --- | --- | --- | --- | --- | --- | --- | --- | --- | --- | --- | --- | --- | --- | --- | --- |
| 17.01 % Dose | 0.01 % Dose | 19.88 % Dose | 0.04 % Dose | 7.44% | 492.2 ng·h/g | 4.43% | 402.45 ng·h/g | 7.76 % Dose | 3.68% | 331.07 ng·h/g | 0.29 % Dose | 4.95 % Dose | 7.01% | 493.84 ng·h/g | 0.07 % Dose | CCC(CC)C(c1ccc(Nc2nc3ccc(O)cc3s2)cc1)n1cncn1 (stereo not shown) [Metabolite M4] | down regulate dose-dependently | 1.2 mg/kg/day | inhibition of vaginal keratinization ([1]; oral administration during 3 days, ovariectomized rats): inhibited vaginal keratinization induced by estrogenic treatment in ovariectomized rats in a dose-dependent manner; Plasma 0-24 h AUC (% Sample) ([2]; female): 34.33%; Plasma 0-24 h AUC of the radioactive component ([2]; female): 6257.6 ng·h/g; Plasma 0-24 h AUC (% Sample) ([2]; male): 18.37%; Plasma 0-24 h AUC of the radioactive component ([2]; male): 3132.4 ng·h/g; Feces % Dose as the component ([3]; female): 15.16 % Dose; Urine % Dose as the component ([3]; female): 0.01 % Dose; Feces % Dose as the component ([3]; male): 10.56 % Dose; Urine % Dose as the component ([3]; male): 0.02 % Dose; Plasma 0-24 h AUC of the radioactive component ([5]; human, po, 0.067 mg/kg): 58.74 ng·h/g; Semen (radioactive component in semen samples) [5]: minor radioactive components; Plasma 0-24 h AUC (% Sample), % of total plasma radioactivity ([5]; male, human, po, 0.067 mg/kg): 27.8% |
| 3.09 % Dose | 0.45 % Dose | 4.31 % Dose | 1.35 % Dose | 18.27% | 1208.2 ng·h/g | 21.31% | 1937.3 ng·h/g |  | 12.06% | 1084.8 ng·h/g |  |  | 4.43% | 312.30 ng·h/g |  | CCC(CC)C(c1ccc(Nc2nc3ccc(OC4OC(C(=O)O)C(O)C(O)C4O)cc3s2)cc1)n1cncn1 (stereo not shown) [Metabolite M9] |  |  |  |
|  |  |  |  |  |  |  |  | 1.33 % Dose | 2.43% | 218.47 ng·h/g | 0.31 % Dose | 1.42 % Dose | 2.94% | 207.48 ng·h/g | 0.16 % Dose | CCC(CC)C(c1ccc(Nc2nc3ccc(OS(=O)(=O)O)cc3s2)cc1)n1cncn1 (stereo not shown) [Metabolite M16] |  |  |  |
